Assay results published in the supplement of paper PMC10307832.

Experiments:
Experiment in all cases: relative viability (nuclei count vs DMSO), 5 days (fraction); higher = more cells survive
[1] = compound: CN(C)CC1=CC(=CC=C1)N=C(C2=CC=CC=C2)C3=C(NC4=C3C=CC(=C4)C(=O)N(C)C)O
In short: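 Cells of lung cancer lines were placed in 1536-well plates and kept overnight at 37 °C. Pinning then delivered five library-drug doses (not always all listed), spaced by √10, onto plates anchored with vehicle, and the cells were left 5 days without changing medium. One step fixed, permeabilised and stained them with Hoechst, and MetaXpress counted nuclei in 4× images. Viability, as a median over plates, is treated-well nuclei divided by vehicle-well nuclei, with acceptance only at control CV below 25% and at least one doubling.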

[2] = compound: CN(C)CC1=CC(=CC=C1)N=C(C2=CC=CC=C2)C3=C(NC4=C3C=CC(=C4)C(=O)N(C)C)O + CC(=O)Nc1cccc(-n2c(=O)n(C3CC3)c(=O)c3c(Nc4ccc(I)cc4F)n(C)c(=O)c(C)c32)c1 [Trametinib] (partner 0.02 µM)
In short: (§1)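 Values are medians from duplicate plates. Each reflects relative viability, defined as the nuclei count of treated wells over that of vehicle wells. Lung cancer cell lines in 1536-well plates were pin-tool dosed one day after seeding with one drug alone or with a fixed anchor-drug dose plus five library-drug doses (not always all listed) in √10 steps, then fixed, stained and imaged at 4× after 5 days.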

[3] = compound: CN(C)CC1=CC(=CC=C1)N=C(C2=CC=CC=C2)C3=C(NC4=C3C=CC(=C4)C(=O)N(C)C)O + CC(=O)c1c(C)c2cnc(Nc3ccc(N4CCNCC4)cn3)nc2n(C2CCCC2)c1=O [Palbociclib] (partner 0.5 µM)
In short: as §1

[4] = compound: CN(C)CC1=CC(=CC=C1)N=C(C2=CC=CC=C2)C3=C(NC4=C3C=CC(=C4)C(=O)N(C)C)O + CCNC(=O)c1noc(-c2cc(C(C)C)c(O)cc2O)c1-c1ccc(CN2CCOCC2)cc1 [Luminespib] (partner 0.01 µM)
In short: as §1

[5] = compound: CN(C)CC1=CC(=CC=C1)N=C(C2=CC=CC=C2)C3=C(NC4=C3C=CC(=C4)C(=O)N(C)C)O + COc1cccc2cc(-c3nc([C@H]4CC[C@H](C(=O)O)CC4)n4ncnc(N)c34)[nH]c12 [OSI-027] (partner 0.5 µM)
In short: as §1

[6] = compound: CN(C)CC1=CC(=CC=C1)N=C(C2=CC=CC=C2)C3=C(NC4=C3C=CC(=C4)C(=O)N(C)C)O + Cc1cc(Nc2cc(N3CCN(C)CC3)nc(Sc3ccc(NC(=O)C4CC4)cc3)n2)n[nH]1 [Tozasertib] (partner 0.1 µM)
In short: as §1

[7] = compound: CN(C)CC1=CC(=CC=C1)N=C(C2=CC=CC=C2)C3=C(NC4=C3C=CC(=C4)C(=O)N(C)C)O + Cc1nc(Nc2ncc(C(=O)Nc3c(C)cccc3Cl)s2)cc(N2CCN(CCO)CC2)n1 [Dasatinib] (partner 0.075 µM)
In short: as §1

[8] = compound: CN(C)CC1=CC(=CC=C1)N=C(C2=CC=CC=C2)C3=C(NC4=C3C=CC(=C4)C(=O)N(C)C)O + N=C(N)NC(=N)NCCc1ccccc1 [Phenformin] (partner 250 µM)
In short: as §1

[9] = compound: CN(C)CC1=CC(=CC=C1)N=C(C2=CC=CC=C2)C3=C(NC4=C3C=CC(=C4)C(=O)N(C)C)O + NC(=O)Nc1cc(-c2cccc(F)c2)sc1C(=O)N[C@H]1CCCNC1 [AZD7762] (partner 0.2 µM)
In short: as §1

[10] = compound: CN(C)CC1=CC(=CC=C1)N=C(C2=CC=CC=C2)C3=C(NC4=C3C=CC(=C4)C(=O)N(C)C)O + Nc1nc2[nH]cc(CCc3ccc(C(=O)N[C@@H](CCC(=O)O)C(=O)O)cc3)c2c(=O)[nH]1 [Pemetrexed] (partner 0.2 µM)
In short: as §1

[11] = compound: CN(C)CC1=CC(=CC=C1)N=C(C2=CC=CC=C2)C3=C(NC4=C3C=CC(=C4)C(=O)N(C)C)O + Nc1ncn([C@H]2C[C@H](O)[C@@H](CO)O2)c(=O)n1 [Decitabine] (partner 2 µM)
In short: as §1

[12] = compound: CN(C)CC1=CC(=CC=C1)N=C(C2=CC=CC=C2)C3=C(NC4=C3C=CC(=C4)C(=O)N(C)C)O + O=C(CCCCCCC(=O)Nc1ccccc1)NO [Vorinostat] (partner 1 µM)
In short: as §1

[13] = compound: CN(C)CC1=CC(=CC=C1)N=C(C2=CC=CC=C2)C3=C(NC4=C3C=CC(=C4)C(=O)N(C)C)O + O=C(c1cc(Cc2n[nH]c(=O)c3ccccc23)ccc1F)N1CCN(C(=O)C2CC2)CC1 [Olaparib] (partner 8 µM)
In short: as §1

[14] = compound: CN(C)CC1=CC(=CC=C1)N=C(C2=CC=CC=C2)C3=C(NC4=C3C=CC(=C4)C(=O)N(C)C)O + COc1cc2c(Oc3ccc(NC(=O)C4(C(=O)Nc5ccc(F)cc5)CC4)cc3F)ccnc2cc1OCCCN1CCOCC1 [Foretinib] (partner 0.25 µM)
In short: as §1

NCI-H522
relative viability ([1]; 0.08 µM): 1.1 | relative viability ([1]; 0.253 µM): 1.01 | relative viability ([1]; 0.8 µM): 0.829 | relative viability ([1]; 2.53 µM): 0.958 | relative viability ([1]; 8 µM): 0.913 | relative viability ([2]; first compound 0.08 µM): 0.709 | relative viability ([2]; first compound 0.253 µM): 0.84 | relative viability ([2]; first compound 0.8 µM): 0.735 | relative viability ([2]; first compound 2.53 µM): 0.746 | relative viability ([2]; first compound 8 µM): 0.667 | relative viability ([3]; first compound 0.08 µM): 0.956 | relative viability ([3]; first compound 0.253 µM): 1.04 | relative viability ([3]; first compound 0.8 µM): 0.906 | relative viability ([3]; first compound 2.53 µM): 0.886 | relative viability ([3]; first compound 8 µM): 0.923 | relative viability ([4]; first compound 0.08 µM): 1.16 | relative viability ([4]; first compound 0.253 µM): 1.13 | relative viability ([4]; first compound 0.8 µM): 1.12 | relative viability ([4]; first compound 2.53 µM): 1.22 | relative viability ([4]; first compound 8 µM): 0.819 | relative viability ([5]; first compound 0.08 µM): 0.68 | relative viability ([5]; first compound 0.253 µM): 0.693 | relative viability ([5]; first compound 0.8 µM): 0.694 | relative viability ([5]; first compound 2.53 µM): 0.651 | relative viability ([5]; first compound 8 µM): 0.643 | relative viability ([6]; first compound 0.08 µM): 0.544 | relative viability ([6]; first compound 0.253 µM): 0.46 | relative viability ([6]; first compound 0.8 µM): 0.546 | relative viability ([6]; first compound 2.53 µM): 0.587 | relative viability ([6]; first compound 8 µM): 0.62 | relative viability ([7]; first compound 0.08 µM): 0.938 | relative viability ([7]; first compound 0.253 µM): 0.97 | relative viability ([7]; first compound 0.8 µM): 0.788 | relative viability ([7]; first compound 2.53 µM): 0.837 | relative viability ([7]; first compound 8 µM): 0.982 | relative viability ([8]; first compound 0.08 µM): 0.688 | relative viability ([8]; first compound 0.253 µM): 0.646 | relative viability ([8]; first compound 0.8 µM): 0.66 | relative viability ([8]; first compound 2.53 µM): 0.621 | relative viability ([8]; first compound 8 µM): 0.655 | relative viability ([9]; first compound 0.08 µM): 0.972 | relative viability ([9]; first compound 0.253 µM): 0.871 | relative viability ([9]; first compound 0.8 µM): 0.855 | relative viability ([9]; first compound 2.53 µM): 0.953 | relative viability ([9]; first compound 8 µM): 0.736 | relative viability ([10]; first compound 0.08 µM): 1.03 | relative viability ([10]; first compound 0.253 µM): 1.04 | relative viability ([10]; first compound 0.8 µM): 0.763 | relative viability ([10]; first compound 2.53 µM): 1.07 | relative viability ([10]; first compound 8 µM): 0.817 | relative viability ([11]; first compound 0.08 µM): 0.672 | relative viability ([11]; first compound 0.253 µM): 0.673 | relative viability ([11]; first compound 0.8 µM): 0.635 | relative viability ([11]; first compound 2.53 µM): 0.597 | relative viability ([11]; first compound 8 µM): 0.574 | relative viability ([12]; first compound 0.08 µM): 0.986 | relative viability ([12]; first compound 0.253 µM): 0.984 | relative viability ([12]; first compound 0.8 µM): 0.89 | relative viability ([12]; first compound 2.53 µM): 0.977 | relative viability ([12]; first compound 8 µM): 0.843 | relative viability ([13]; first compound 0.08 µM): 0.573 | relative viability ([13]; first compound 0.253 µM): 0.663 | relative viability ([13]; first compound 0.8 µM): 0.545 | relative viability ([13]; first compound 2.53 µM): 0.713 | relative viability ([13]; first compound 8 µM): 0.622

NCI-H1623
relative viability ([1]; 0.08 µM): 1.09 | relative viability ([1]; 0.253 µM): 0.97 | relative viability ([1]; 0.8 µM): 0.729 | relative viability ([1]; 2.53 µM): 1.04 | relative viability ([1]; 8 µM): 1.09 | relative viability ([4]; first compound 0.08 µM): 0.416 | relative viability ([4]; first compound 0.253 µM): 0.652 | relative viability ([4]; first compound 2.53 µM): 0.445 | relative viability ([4]; first compound 8 µM): 0.504 | relative viability ([14]; first compound 0.08 µM): 0.825 | relative viability ([14]; first compound 0.253 µM): 1.17 | relative viability ([14]; first compound 0.8 µM): 0.642 | relative viability ([14]; first compound 2.53 µM): 0.894 | relative viability ([14]; first compound 8 µM): 0.854 | relative viability ([5]; first compound 0.08 µM): 0.428 | relative viability ([5]; first compound 0.253 µM): 0.449 | relative viability ([5]; first compound 0.8 µM): 0.378 | relative viability ([5]; first compound 2.53 µM): 0.452 | relative viability ([5]; first compound 8 µM): 0.514 | relative viability ([6]; first compound 0.08 µM): 0.428 | relative viability ([6]; first compound 0.253 µM): 0.519 | relative viability ([6]; first compound 2.53 µM): 0.412 | relative viability ([6]; first compound 8 µM): 0.464 | relative viability ([7]; first compound 0.08 µM): 0.552 | relative viability ([7]; first compound 0.253 µM): 0.632 | relative viability ([7]; first compound 2.53 µM): 0.593 | relative viability ([7]; first compound 8 µM): 0.499 | relative viability ([8]; first compound 0.08 µM): 0.544 | relative viability ([8]; first compound 0.253 µM): 0.69 | relative viability ([8]; first compound 2.53 µM): 0.551 | relative viability ([8]; first compound 8 µM): 0.514
